We go through 22 compounds from ChEMBL document CHEMBL3046824, “Synthesis and pharmacological evaluation of newer thiazolo [3,2-a] pyrimidines for anti-inflammatory and antinociceptive activity” (Med Chem Res, 2010).

In one data set the test system is Mus musculus. Briefly: Antinociceptive activity in albino Mus musculus (mouse) assessed as increase in latency for tail withdrawal at 20 mg/kg, po measured after 4 hr by thermal stimulus method relative to control. The format is functional.
The test system of data set [1] is Rattus norvegicus. Kind of data set: Anti-inflammatory activity in albino Rattus norvegicus (rat) assessed as inhibition of carrageenan-induced paw edema at 25 mg/kg, po administered 1 hr prior to carrageenan-challenge measured after 1 to 3 hr relative to control. The format is functional.
Data set [2] in a line: Toxicity in ip dosed albino Mus musculus (mouse) measured after 24 hr. Format: organism-based. Conditions: in vivo, read-out: ALD50.
The nature of data set [3]: Ulcerogenic activity in ip dosed fasted albino Rattus norvegicus (rat) measured after 8 hr. The format is toxicity, organism-based. The conditions noted are these: in vivo, read-out: UD50.
Data set [4] concerns Rattus norvegicus. Briefly: Anti-inflammatory activity in albino Rattus norvegicus (rat) assessed as inhibition of carrageenan-induced paw edema at 100 mg/kg, po administered 1 hr prior to carrageenan-challenge measured after 1 to 3 hr relative to control. The format is functional.
Data set [5] concerns Rattus norvegicus. Briefly: Anti-inflammatory activity in albino Rattus norvegicus (rat) assessed as inhibition of carrageenan-induced paw edema at 50 mg/kg, po administered 1 hr prior to carrageenan-challenge measured after 1 to 3 hr relative to control. Format: functional.

Each structure is given as a SMILES string.

In the case of `CC1=C(C(=O)Nc2ccc(F)cc2)C(c2ccccc2[N+](=O)[O-])n2c(s/c(=C/c3ccc(Br)cc3)c2=O)=N1` (centres undefined), the Activity with Mus musculus stood at 100%. For the same compound, the inhibition in vivo at 25 mg/kg in the data set with Rattus norvegicus [1] was 16%.
The matching figures for `CC1=C(C(=O)Nc2ccc(F)cc2)C(c2ccc([N+](=O)[O-])cc2)n2c(s/c(=C/c3ccccc3)c2=O)=N1` (centres undefined): 93% and 7%.
The matching figures for `CC1=C(C(=O)Nc2ccc(F)cc2)C(c2ccc(Br)cc2)n2c(s/c(=C/c3ccccc3)c2=O)=N1` (centres undefined): 76% and 5%.
As for `CC1=C(C(=O)Nc2ccc(F)cc2)C(c2ccc(Cl)cc2)n2c(s/c(=C/c3ccc(F)cc3)c2=O)=N1` (centres undefined), the LD50 at 24 h in data set [2] was > 1000 mg/kg. In addition, the TD50 at 8 h in data set [3] was 240 mg/kg. The Activity in the data set on Mus musculus worked out at 172%. In addition, in the data set with Rattus norvegicus [4], the inhibition in vivo at 100 mg/kg stood at 80%. In the data set on Rattus norvegicus [5], the inhibition in vivo at 50 mg/kg worked out at 60%. Moreover, the inhibition in vivo at 25 mg/kg in the data set on Rattus norvegicus [1] stood at 44%.
For the compound `CC1=C(C(=O)Nc2ccc(F)cc2)C(c2ccc(F)cc2)n2c(s/c(=C/c3ccc(Cl)cc3)c2=O)=N1` (centres undefined), in data set [2], the LD50 at 24 h was > 1000 mg/kg. The TD50 at 8 h in data set [3] turned out to be 175 mg/kg. Moreover, in the data set on Mus musculus, the Activity turned out to be 189%. Besides, the inhibition in vivo at 100 mg/kg with Rattus norvegicus [4] is 78%. The inhibition in vivo at 50 mg/kg in the data set with Rattus norvegicus [5] was found to be 50%. The inhibition in vivo at 25 mg/kg in the data set with Rattus norvegicus [1] is 47%.
For `COc1ccc(/C=c2/sc3n(c2=O)C(c2ccc([N+](=O)[O-])cc2)C(C(=O)Nc2ccc(F)cc2)=C(C)N=3)cc1` (centres undefined), the Activity with Mus musculus is on record as 46%. Further, the inhibition in vivo at 25 mg/kg in the data set with Rattus norvegicus [1] was determined as 12%.
Take `CC1=C(C(=O)Nc2ccc(F)cc2)C(c2ccc(Cl)cc2)n2c(s/c(=C/c3ccc(Br)cc3)c2=O)=N1` (centres undefined): the Activity with Mus musculus is reported as 76%. In addition, in the data set on Rattus norvegicus [1], the inhibition in vivo at 25 mg/kg came to 35%.
Turning to `CC1=C(C(=O)Nc2ccc(F)cc2)C(c2ccc(Br)cc2)n2c(s/c(=C/c3ccc(Cl)cc3)c2=O)=N1` (centres undefined), in the data set on Mus musculus, the Activity was determined as 104%. Also, the inhibition in vivo at 25 mg/kg in the data set on Rattus norvegicus [1] was found to be 25%.
The matching figures for `CC1=C(C(=O)Nc2ccc(F)cc2)C(c2ccc([N+](=O)[O-])cc2)n2c(s/c(=C/c3ccc(Cl)cc3)c2=O)=N1` (centres undefined): 104% and 23%.
The matching figures for `CC1=C(C(=O)Nc2ccc(F)cc2)C(c2ccc([N+](=O)[O-])cc2)n2c(s/c(=C/c3ccc(Cl)cc3Cl)c2=O)=N1` (centres undefined): 121% and 17%.
As for `CC1=C(C(=O)Nc2ccc(F)cc2)C(c2ccc(F)cc2)n2c(s/c(=C/c3ccc([N+](=O)[O-])cc3)c2=O)=N1` (centres undefined), the Activity with Mus musculus turned out to be 121%. In addition, the inhibition in vivo at 25 mg/kg with Rattus norvegicus [1] was determined as 30%.
The matching figures for `CC1=C(C(=O)Nc2ccc(F)cc2)C(c2ccccc2[N+](=O)[O-])n2c(s/c(=C/c3ccccc3Cl)c2=O)=N1` (centres undefined): 72% and 12%.
The matching figures for `CC1=C(C(=O)Nc2ccc(F)cc2)C(c2ccc(Cl)cc2)n2c(s/c(=C/c3ccccc3[N+](=O)[O-])c2=O)=N1` (centres undefined): 82% and 16%.
With `CC1=C(C(=O)Nc2ccc(F)cc2)C(c2ccc(F)cc2)n2c(s/c(=C/c3ccccc3Cl)c2=O)=N1` (centres undefined), the Activity with Mus musculus is on record as 119%. Besides, the inhibition in vivo at 25 mg/kg in the data set with Rattus norvegicus [1] is 19%.
The matching figures for `CC1=C(C(=O)Nc2ccc(F)cc2)C(c2ccc(Br)cc2)n2c(s/c(=C/c3ccc(Cl)cc3Cl)c2=O)=N1` (centres undefined): 31% and 14%.
With `CC1=C(C(=O)Nc2ccc(F)cc2)C(c2ccc([N+](=O)[O-])cc2)n2c(s/c(=C/c3ccccc3Cl)c2=O)=N1` (centres undefined), the Activity in the data set with Mus musculus was found to be 140%. The inhibition in vivo at 25 mg/kg with Rattus norvegicus [1] turned out to be 19%.
Consider `CCCCC1C(=O)N(c2ccccc2)N(c2ccccc2)C1=O` [PHENYLBUTAZONE], for which the LD50 at 24 h in data set [2] is > 1000 mg/kg. In addition, the TD50 at 8 h in data set [3] was found to be 70.2 mg/kg. The inhibition in vivo at 100 mg/kg in the data set with Rattus norvegicus [4] came to 70%. Besides, in the data set on Rattus norvegicus [5], the inhibition in vivo at 50 mg/kg worked out at 55%. Further, the inhibition in vivo at 25 mg/kg in the data set on Rattus norvegicus [1] came to 43%.
In the case of `CC1=C(C(=O)Nc2ccc(F)cc2)C(c2ccc(Cl)cc2)n2c(s/c(=C/c3ccc(Cl)cc3Cl)c2=O)=N1` (centres undefined), the Activity in the data set on Mus musculus stood at 46%. Also, in the data set on Rattus norvegicus [1], the inhibition in vivo at 25 mg/kg stood at 14%.
Consider `CC1=C(C(=O)Nc2ccc(F)cc2)C(c2ccc(Cl)cc2)n2c(s/c(=C/c3ccccc3Cl)c2=O)=N1` (centres undefined), for which, in the data set with Mus musculus, the Activity was found to be 63%. The inhibition in vivo at 25 mg/kg in the data set with Rattus norvegicus [1] amounted to 16%.
For `O=C(O)Cc1ccccc1Nc1c(Cl)cccc1Cl` [DICLOFENAC], the Activity in the data set with Mus musculus turned out to be 274%.
Take `CC1=C(C(=O)Nc2ccc(F)cc2)C(c2ccc(Br)cc2)n2c(s/c(=C/c3ccc(C)cc3)c2=O)=N1` (centres undefined): the Activity with Mus musculus amounted to 72%. For the same compound, in the data set on Rattus norvegicus [1], the inhibition in vivo at 25 mg/kg is 11%.
For the compound `COc1ccc(/C=c2/sc3n(c2=O)C(c2ccc(Br)cc2)C(C(=O)Nc2ccc(F)cc2)=C(C)N=3)cc1OC` (centres undefined), in the data set with Mus musculus, the Activity was determined as 23%. For the same compound, the inhibition in vivo at 25 mg/kg with Rattus norvegicus [1] is 8%.
